Laboratory results published in patent US12187688B2, “Crystal form of tetramethylpyrazine nitrone, preparation method and use thereof” (GUANGZHOU MAGPIE PHARMACEUTICALS CO., LTD., priority 2019, dated 2025).
Where “and” joins values, the source holds several entries; their conditions need not be identical. Equal entries are not always repeated. Where two headings read alike, the source gives them in different places.

Assays:
[1] = pharmacokinetic study in the cerebrospinal fluid of cynomolgus monkey; format: in vivo
Description: The pharmacodynamic study in cynomolgus monkey animal model of cerebral stroke and also the pharmacokinetic study of the crystal form A of TBN in the cerebrospinal fluid of cynomolgus monkey were carried out. 10 min, 30 min, 60 min, and 120 min after the second administration (30 mg/kg, 6 hrs after the first intravenous administration of 30 mg/kg), 0.5 ml of cerebrospinal fluid was collected for pharmacokinetic test.

[2] = distribution in tissues after intravenous administration to SD rats; format: in vivo; conditions: 30 mg/kg i.v.
Description: SD rats were given the crystal form A of TBN at a dose of 30 mg/kg by intravenous injection and the distribution of the crystal form A of TBN in various tissues was investigated.

[3] = pharmacokinetic study in the cerebrospinal fluid of cynomolgus monkey; format: in vivo; conditions: plasma, iv, 30 mg/kg, 10 min after the second administration, 30 mg/kg i.v., read-out: concentration of the drug in plasma
[4] = in vitro cell experiments (effective protection concentration); format: cell-based
[5] = Test of stability against cold/heat treatment; format: physicochemical
Description: (4) The crystal form A was cooled to −55° C., and then heated to 25° C.
(5) The crystal form A was heated to 110° C. (before the decomposition point), and then cooled to 25° C. to obtain a yellow oily liquid.
(6) The TBN dihydrate was heated to 110° C. (before the decomposition point), and then cooled to 25° C. to obtain a yellow oily liquid.

Tableting test = format: physicochemical; conditions: 2 tons for 2 min
Description: (3) The crystal form A and the TBN dihydrate were tableted under a pressure of 2 tons for 2 min. The tablets thus obtained were analyzed by XRPD.

Solubility in solvents = format: physicochemical
[6] = Polymorph transformation test of suspension; format: physicochemical; conditions: petroleum ether, room temperature, 7 days
Description: (1) The crystal form A of TBN was beaten in petroleum ether (1.0 mL) at room temperature for 7 days, and then the suspension was centrifuged, and the solid sample was collected for characterization by XRPD.

[7] = Test of influence of acceleration; format: physicochemical
[8] = Test of stability against mechanical treatment (grinding); format: physicochemical; conditions: ground for 10 min
Description: (2) The crystal form A of TBN and the TBN dihydrate were ground for 10 min receptively, and the treated samples were analyzed by XRPD.

## Cc1nc(C)c(/C=[N+](\[O-])C(C)(C)C)nc1C [TBN, (Z)-2-methyl-N-((3,5,6-trimethylpyrazin-2-yl)methylene)propan-2-amine oxide]
[1]; 10 min after second intravenous 30 mg/kg dose, individual animals, 30 mg/kg
  Drug concentration in cerebrospinal fluid: 33700 ng/mL and 34300 ng/mL
[1]; 30 min after second intravenous 30 mg/kg dose, individual animals, 30 mg/kg
  Drug concentration in cerebrospinal fluid: 32200 ng/mL and 25100 ng/mL
[1]; 60 min after second intravenous 30 mg/kg dose, individual animals, 30 mg/kg
  Drug concentration in cerebrospinal fluid: 25300 ng/mL and 20000 ng/mL
[1]; 120 min after second intravenous 30 mg/kg dose, individual animals, 30 mg/kg
  Drug concentration in cerebrospinal fluid: 16500 ng/mL and 14300 ng/mL and 7800 ng/mL
[1]; cerebrospinal fluid, iv, 30 mg/kg, 10 min after second intravenous 30 mg/kg dose, individual animals, read-out: Drug concentration in cerebrospinal fluid
  concentration at 10 min: 48800 ng/mL
[1]; cerebrospinal fluid, iv, 30 mg/kg, 10 min after the second administration, 30 mg/kg i.v., read-out: concentration of TBN in the cerebrospinal fluid
  concentration at 10 min: 176 µM
[1]; cerebrospinal fluid, iv, 30 mg/kg, 30 min after second intravenous 30 mg/kg dose, individual animals, read-out: Drug concentration in cerebrospinal fluid
  concentration at 30 min: 41100 ng/mL
[1]; cerebrospinal fluid, iv, 30 mg/kg, 60 min after second intravenous 30 mg/kg dose, individual animals, read-out: Drug concentration in cerebrospinal fluid
  concentration at 60 min: 27500 ng/mL
[2]
  accumulation in the detected tissues: does not tend to accumulate
  time to clearance from the tissues and plasma: ≤ 24 h
[2]; 0.25 hrs after administration
  concentration in the brain tissue relative to plasma concentration: 0.6-0.7 time the plasma concentration
[2]; after 4 hrs
  concentration in the brain tissue relative to plasma concentration: 0.8-1.1 times the plasma concentration
[2]; at 24 hrs
  clearance from brain tissue: completely cleared
[2]; female and male
  tissue distribution: rapid and widespread distribution
[3]
  concentration at 10 min: 195 µM
[4]
  effective protection concentration: 30 µM

## Cc1nc(C)c(/C=[N+](\[O-])C(C)(C)C)nc1C [crystal form A of TBN, (Z)-2-methyl-N-((3,5,6-trimethylpyrazin-2-yl)methylene)propan-2-amine oxide]
[5]; cooled to −55° C., then heated to 25° C.
  polymorph transformation after cooling treatment: does not undergo polymorph transformation
[5]; heated to 110° C., cooled to 25° C., solid precipitated after stirring
  crystal form by XRPD after thermal treatment: characterized by XRPD as crystal form A
Tableting test
  polymorph transformation after tableting (XRPD): do not undergo polymorph transformation
[1]; 30 mg/kg i.v.
  blood-brain barrier penetration: penetrate through the blood-brain barrier
Solubility in solvents; most solvents (acetonitrile, methanol, ethanol, acetone, ethyl acetate)
  solubility: readily soluble
Solubility in solvents; water
  solubility: very soluble
[6]
  crystal form by XRPD after suspension beating: still crystal form A
[7]; 7 days at 40° C. and RH=75%
  crystal form by XRPD after acceleration: shows crystal form A
[7]; acceleration (50° C., 75% RH)
  stability in heat treatment, mechanical treatment and acceleration: stable
[8]
  crystal form (XRPD) after grinding: no change
